Source: ChEMBL document CHEMBL2440076, “New triarylpyrazoles as broad-spectrum anticancer agents: design, synthesis, and biological evaluation” (Eur J Med Chem, 2013)

Key:
NCI-H460 = test: Growth inhibition of human NCI-H460 cells assessed as cell growth at 5X10'-8 M after 48 hrs by sulforhodamine B assay; type: functional; conditions: NCI-H460, 48 h, read-out: Activity
UO-31 = test: Growth inhibition of human UO31 cells assessed as cell growth at 5X10'-6 M after 48 hrs by sulforhodamine B assay; type: functional; conditions: UO-31, 48 h, read-out: Activity

| Structure (SMILES) | growth at 0.05 µM (NCI-H460) [%] | growth at 5 µM (UO-31) [%] |
| --- | --- | --- |
| COc1cc(-c2nn(-c3cccc(NC(=O)Nc4cc(C(F)(F)F)cc(C(F)(F)F)c4)c3)cc2-c2ccncc2)ccc1Cl | 100 | -90 |
| COc1cc(-c2nn(-c3cccc(NC(=O)Nc4ccc(Cl)c(Cl)c4)c3)cc2-c2ccncc2)ccc1Cl | 102 |  |
| COc1cc(-c2nn(-c3cccc(NC(=O)c4cccc(C(F)(F)F)c4)c3)cc2-c2ccncc2)ccc1Cl | 100 | 20 |
| O=C(Nc1cccc(-n2cc(-c3ccncc3)c(-c3ccc(Cl)c(O)c3)n2)c1)c1ccc(N2CCOCC2)c(C(F)(F)F)c1 |  | 25 |
| O=C(Nc1cccc(-n2cc(-c3ccncc3)c(-c3ccc(Cl)c(O)c3)n2)c1)Nc1cc(C(F)(F)F)cc(C(F)(F)F)c1 | 101 | -45 |
